Results filed as inconclusive are left out. Activity calls are given as the source filed them.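 The calls were made as follows: active = compound lowering the normal-ribosome reporter at least twice as much as the humanized-ribosome reporter, growth loss under a set limit; inconclusive = no clear call, values can overlap the other calls; inactive = the rest.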

In the first test the test system is E. coli wild-type GFP strain growth, fluorescence, 24 h. Briefly: wild-type E. coli growth inhibition versus h34 humanized strain – h34 mutant RFP, wild-type GFP, cherry-pick, dose response (AID 977624).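 Also: wild-type GFP strain co-cultured with humanized h34 ribosome RFP strain in same well.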
Settings: not given
For orientation: AC50 means the concentration giving half of the maximal activity seen. For `CCOc1cccc(-c2cc(-c3n[nH]c(=S)n3CC)c3ccccc3n2)c1`, the AC50 was > 100 µM (inactive).

`CC(C)(CC(=O)O)CC(=O)NCc1c(Cl)cccc1Sc1ccc(Cl)cc1`: the AC50 was > 100 µM (inactive).

As to `Cc1cccc(C)c1NC(=O)C1(C)CSCC(=O)N1CCOc1ccccc1` (centres undefined), the AC50 was > 100 µM (inactive).

In the case of `O=C(Nc1cccc(-c2cn3ccccc3n2)c1)c1ccccc1`, the AC50 is > 100 µM (inactive).

As for `COc1ccccc1-c1ccc(SCc2cccc(F)c2)nn1`, the AC50 was > 100 µM (inactive).

As for `Cc1cc(OCCCCOc2ccc(S(N)(=O)=O)c(C)c2)ccc1S(N)(=O)=O`, the AC50 is > 100 µM (inactive).

Regarding `O=C(CCc1nc2ccccc2s1)OCC(=O)c1ccc[nH]1`, the AC50 was > 100 µM (inactive).

Take `COc1ccc(NC(=O)CN(c2ccccc2)S(=O)(=O)c2ccccc2)c(OC)c1`: the AC50 is > 100 µM (inactive).

In the case of `CCCCNC(=O)C[C@@H]1C[C@@]2(C(=O)OC)CCCCC=C2N(Cc2ccccc2)C1=O`, the AC50 is > 100 µM (inactive).

Consider `Cc1ccc(C(=O)OCC(=O)c2c[nH]c3ccccc23)cc1NC(=O)c1ccco1`, for which the AC50 is > 100 µM (inactive).

On to `Cc1ccc(-n2nc(C)c3c(C)c(CCC(=O)O)c(C)nc32)cc1C`, for which the AC50 was > 100 µM (inactive).

Turning to `CCc1cc2cc(OC)ccc2nc1SCC(=O)Nc1cc(OC)c(OC)cc1C(=O)O`, the AC50 is > 100 µM (inactive).

In the case of `COC(=O)c1c(NC(=O)c2ccccc2C(=O)O)sc2c1CCC2`, the AC50 is > 100 µM (inactive).

Take `CC(=O)Nc1ccc(Nc2nc(C)c([N+](=O)[O-])c(N(C)c3ccccc3)n2)cc1`: the AC50 is > 100 µM (inactive).

In the case of `O=C(NCc1nc2ccccc2[nH]1)c1ccc(S(=O)(=O)N2CCCC2)cc1`, the AC50 is > 100 µM (inactive).

As to `CS(=O)(=O)c1cccc(C(=O)Nc2cccc(-c3nc4ccccc4[nH]3)c2)c1`, the AC50 is > 100 µM (inactive).

Regarding `Cc1cnc(NC(=O)Cc2c[nH]c3ccccc23)s1`, the AC50 was > 100 µM (inactive).

As to `O=S(=O)(c1ccccc1)N1C[C@H]2[C@@H](c3ccccc31)[C@@H](CO)N2Cc1ccccc1`, the AC50 was > 100 µM (inactive).

In the case of `CSc1ccccc1NC(=O)c1ccccc1N(Cc1ccccc1)S(C)(=O)=O`, the AC50 was > 100 µM (inactive).

In the case of `Cc1ccc(C2NC(=O)c3[nH]nc(-c4ccccc4)c32)cc1` (centres undefined), the AC50 is > 100 µM (inactive).

As to `O=C(COC(=O)c1n[nH]c2ccccc12)Nc1cccc(S(=O)(=O)N2CCOCC2)c1`, the AC50 was > 100 µM (inactive).

For the compound `COc1ccc(NC(=O)CN(c2ccccc2OC)S(=O)(=O)c2cccs2)cc1Cl`, the AC50 is > 100 µM (inactive).

For `CN(c1ccccc1)S(=O)(=O)c1cccc(C(=O)OCC(=O)NCc2ccco2)c1`, the AC50 was > 100 µM (inactive).

`CC1(C(=O)NS(=O)(=O)c2cccc(C#N)c2)CCN1C(=O)C1(c2ccc(Cl)cc2)CCC1` (centres undefined): the AC50 is > 100 µM (inactive).

For `COc1ccc(-c2ccc3ccccc3n2)cc1OC`, the AC50 is > 100 µM (inactive).

On to `CC1CCN(CC(O)COCCC23CC4CC(CC(C4)C2)C3)CC1` (centres undefined), for which the AC50 was > 100 µM (inactive).

With `CCc1nnc(NS(=O)(=O)c2ccc(NC(=O)c3cccc4ccccc34)cc2)s1`, the AC50 is > 100 µM (inactive).

Regarding `FC(F)(F)c1ccc(Cl)c(-n2c(Cc3cccs3)n[nH]c2=S)c1`, the AC50 is > 100 µM (inactive).

Consider `NS(=O)(=O)c1cccc(NC(=O)CSc2nnc(-c3ccccc3F)n2C2CC2)c1`, for which the AC50 is > 100 µM (inactive).

Consider `Cc1c(C(=O)NCCSCc2cccc(C(F)(F)F)c2)cnn1-c1ccc(F)cc1`, for which the AC50 was > 100 µM (inactive).

Regarding `O=C(O)c1ccc(-c2noc(-c3cccc(Cl)c3)n2)cc1`, the AC50 was > 100 µM (inactive).

Take `COc1ccc(CCNc2nc(-c3ccncc3)cs2)cc1OC`: the AC50 is > 100 µM (inactive).

On to `CC(=O)Oc1ccc(N(C(C)=O)S(=O)(=O)c2ccc(C)cc2)c2ccccc12`, for which the AC50 is > 100 µM (inactive).

For the compound `CCCCc1ccc(S(=O)(=O)Nc2ccc(C)c(NS(C)(=O)=O)c2)cc1`, the AC50 is > 100 µM (inactive).

In the case of `CC(=O)c1c(C)[nH]c(C(=O)Nc2nc(C)cs2)c1C`, the AC50 is > 100 µM (inactive).

`N#Cc1nc(Cc2ccccc2)oc1N1CCCC1`: the AC50 is > 100 µM (inactive).

With `O=C(O)c1ccc2c(c1)N(Cc1ccc(F)cc1)C(=O)c1ccccc1S2`, the AC50 was > 100 µM (inactive).

As to `CCOC(=O)c1c(CS(=O)(=O)c2ccccc2)n(C)c2cc(Br)c(O)cc12`, the AC50 is > 100 µM (inactive).

For the compound `Fc1cccc(Cl)c1CSc1ccc(-c2ccco2)nn1`, the AC50 is > 100 µM (inactive).

As to `CCOc1ccc(S(=O)(=O)N(C)c2ccc(OCC(=O)Nc3ccc4[nH]c(=O)[nH]c4c3)cc2)cc1`, the AC50 is > 100 µM (inactive).

Turning to `NC(=O)c1ccsc1NC(=O)COC(=O)CCOc1ccccc1`, the AC50 was > 100 µM (inactive).

With `Cc1cc(NC(=O)CS(=O)(=O)c2cn(Cc3cccc(Br)c3)c3ccccc23)no1`, the AC50 was > 100 µM (inactive).

Regarding `O=C(CSc1nc2scc(-c3ccccc3)c2c(=O)[nH]1)N1CCCCC1`, the AC50 was > 100 µM (inactive).

In the case of `NC(=O)c1nsc(C(=O)N(c2ccccc2F)C(C(=O)NCc2ccc(F)cc2)c2ccc(O)cc2)c1N` (centres undefined), the AC50 is > 100 µM (inactive).

In the case of `O=C(Cc1coc2cc(O)ccc12)N1CCN(S(=O)(=O)c2ccc(Br)cc2)CC1`, the AC50 was > 100 µM (inactive).

For the compound `CCOC(=O)c1nc(S(C)(=O)=O)ncc1Cl`, the AC50 is > 100 µM (inactive).

In the case of `CN1CCN(C(=O)C[C@H]2CC[C@@H]3[C@H](COC[C@@H](O)CN3C(=O)Nc3ccc(Cl)cc3)O2)CC1`, the AC50 is > 100 µM (inactive).

On to `O=C(CCCOc1ccc(Cl)cc1Cl)Nc1ccccc1C(=O)O`, for which the AC50 was > 100 µM (inactive).

Take `CC(Nc1ncnc2ccccc12)c1ccccc1` (centres undefined): the AC50 is > 100 µM (inactive).

Consider `Cc1csc(SCc2nc3scc(-c4ccccc4)c3c(=O)[nH]2)n1`, for which the AC50 is > 100 µM (inactive).

In the case of `O=[N+]([O-])c1cccnc1N1CCN(c2ccc(F)cc2)CC1`, the AC50 is > 100 µM (inactive).

As to `Cc1ccc2oc(C(=O)N(CCO)Cc3ccccc3)c(C)c2c1`, the AC50 was > 100 µM (inactive).

As to `COC(=O)COc1ccc(Cl)cc1C1Nc2ccccc2C(=O)N1c1ccc(OC)cc1` (centres undefined), the AC50 was > 100 µM (inactive).

Regarding `COc1cc(SC)ccc1C(=O)N1CCN(c2ccccc2F)CC1`, the AC50 is > 100 µM (inactive).

`COc1cccc2c1Oc1cc([N+](=O)[O-])cc(N(C)C(C)=O)c1C=C2`: the AC50 is > 100 µM (inactive).

In the case of `COc1cc(NC(=O)c2ccc([N+](=O)[O-])o2)ccc1NC(=O)c1ccco1`, the AC50 was > 100 µM (inactive).

Consider `CCCN(CC1CC1)C(=O)CSc1ncnc2sccc12`, for which the AC50 is > 100 µM (inactive).

Turning to `Nc1cc([N+](=O)[O-])ccc1Nc1ccc(O)cc1`, the AC50 is > 100 µM (inactive).

Take `COc1ccc(Nc2nc(N)c([N+](=O)[O-])c(N3CCCC3)n2)cc1`: the AC50 is > 100 µM (inactive).

Regarding `Cc1ccc2nc(SCC(=O)Nc3c(F)cccc3F)[nH]c2c1`, the AC50 is > 100 µM (inactive).

In the case of `COc1cc2c(cc1OC)C1(C)N(CC2)C(C(C)=O)=NN1c1ccc(Cl)cc1` (centres undefined), the AC50 is > 100 µM (inactive).

`Cc1ccsc1C(=O)OCC(=O)N1CCc2ccccc2C1`: the AC50 is > 100 µM (inactive).

The subject of a further test is E. coli mixed culture (wild-type GFP + h34 RFP) total growth, OD600, 24 h. The description is as above. The following applies: E. coli mixed culture (wild-type GFP + h34 RFP), 24 h; measured here: total OD600 growth.
With `O=C(Nc1cc(S(=O)(=O)N2CCOCC2)ccc1N1CCOCC1)c1ccc([N+](=O)[O-])s1`, the AC50 is > 100 µM.

Turning to `COc1ccccc1NC(=O)CSc1nccn1Cc1ccc(F)cc1`, the AC50 is > 100 µM.

In the case of `C=CCn1c(SCC(=O)Nc2ccc3c(c2)OCCO3)nnc1-c1ccco1`, the half-maximal activity concentration (AC50) was > 100 µM.

As to `Cc1ccccc1COc1ccc(-c2nn[nH]n2)cc1`, the AC50 was > 100 µM.

Consider `O=C1c2ccccc2NC(c2ccc(-c3cccc([N+](=O)[O-])c3)o2)N1O` (centres undefined), for which the concentration at half-maximal activity (AC50) is > 100 µM.

Consider `Cc1noc(C)c1NC(=O)N(C)C[C@H]1OCCCC[C@@H](C)Oc2ccc(NC(=O)Nc3cccc4ccccc34)cc2C(=O)N([C@@H](C)CO)C[C@H]1C`, for which the AC50 is > 100 µM.

As for `CCCN(Cc1ccco1)S(=O)(=O)c1ccc(OC)c(OC)c1`, the AC50 is > 100 µM.

As for `CC(=O)Nc1cccc(-c2ccnc3c2CC(C(=O)Nc2ccc4c(c2)OCO4)O3)c1` (centres undefined), the AC50 was > 100 µM.

With `O=C(c1ccc2c(c1)CCN2S(=O)(=O)c1ccccc1)N1CCN(c2ccccc2)CC1`, the AC50 is > 100 µM.

Take `CCOC(=O)c1cc(-c2ccc(OC)cc2)n[nH]1`: the AC50 was > 100 µM.

Turning to `CO[C@@H]1CN(C)C(=O)c2cc(NC(=O)C3CCCC3)ccc2OC[C@@H](C)N(C(=O)Nc2ccc(C(F)(F)F)cc2)C[C@H]1C`, the AC50 was > 100 µM.

On to `CCSc1nc2ccccc2c(=O)n1CCc1ccc(OC)c(OC)c1`, for which the AC50 is > 100 µM.

For the compound `CCOc1ccc(CCNC(=O)CCn2ccc3cc(S(=O)(=O)N4CCCC4)ccc32)cc1`, the half-maximal activity concentration (AC50) was > 100 µM.

On to `O=C(Nc1cccc(Cl)c1)N1C[C@@H]2[C@H](c3ccccc31)[C@H](CO)N2Cc1ccncc1`, for which the AC50 is > 100 µM.

`CC(=O)c1cccc(NC(=O)COC(=O)CCC(=O)c2ccc(F)cc2)c1`: the AC50 was > 100 µM.

In the case of `CCOC(=O)c1c(C)[nH]c(C)c1S(=O)(=O)NCCN1CCN(c2ccccc2F)CC1`, the AC50 is > 100 µM.

Regarding `C=CCN(CC(O)c1cccc([N+](=O)[O-])c1)C(C)CCc1ccccc1` (centres undefined), the AC50 is > 100 µM.

On to `CCn1cc(CCC(=O)NCCc2ccccc2)c2ccccc21`, for which the AC50 was > 100 µM.

Regarding `CC(=O)Nc1cccc(NC(=O)CSc2ccc(-c3cccnc3)nn2)c1`, the AC50 was > 100 µM.

Take `Cc1nc(SCC(=O)Nc2ccc3c(c2)OCCO3)nc(C)c1C`: the AC50 was > 100 µM.

On to `CN(C)Cc1nc2ccccc2c(=O)n1Cc1nc(-c2cccc([N+](=O)[O-])c2)cs1`, for which the half-maximal activity concentration (AC50) is > 100 µM.

Take `Cc1cccc(-c2ccc([C@H]3[C@H](CO)N4CCCCN(S(=O)(=O)c5ccccc5C)C[C@@H]34)cc2)c1`: the AC50 was > 52 µM.

The values are drawn from PubChem BioAssay AID977624 (Broad Institute, 2014).
